# Test results published in US20200369728A1, “PEPTIDOMIMETIC MACROCYCLES AND USES THEREOF” (Aileron Therapeutics, Inc., priority 2015, published 2020).
# pEC50, pIC50: −log10 of the molar value. Values joined by “and” are separate entries in the source; they are usually repeats but may differ in a detail not shown here. Equal values may be shown once. Bridge positions count the residues as written; N and C are the ends. Square brackets hold non-standard residues; d marks the D form. Ends that are not written are not given here. Peptide text beside a SMILES is read from it. Phe(4-COOH) = N[C@@H](Cc1ccc(C(=O)O)cc1)C(=O)O; R8 = C=CCCCCCC[C@@](C)(N)C(=O)O; Cba = N[C@@H](CC1CCC1)C(=O)O; S5 = C=CCCC[C@](C)(N)C(=O)O
# Assays:
# [1] = system: DOHH-2; test: WST-1 / MTT cell viability, DOHH-2; type: cell-based, human; conditions: for pIC50: Homo sapiens, DOHH-2, 72 h
# Description: Initially, various DOHH-2 cell numbers were plated and evaluated 3-7 days later to determine the optimal number of cells to be plated and treatment duration.
# (§1) A drug combination index plot was used to assess the synergistic, additive, or antagonistic properties of each combination treatment. […] Combination index (CI) values were calculated using the CompuSyn software. The data were expressed as log(CI).
# The anticancer activity of the combination treatment was assessed based on the order of addition of the drugs.
# [2] = target: MDM2 (In-house, 41 kD) (UniProt Q00987); test: competitive fluorescence polarization, displacement of FAM-labeled linear peptide from MDM2; grade decoded by the scale of Table 4
# Chain of MDM2 (In-house, 41 kD) (Q00987 1-125 limits assumed): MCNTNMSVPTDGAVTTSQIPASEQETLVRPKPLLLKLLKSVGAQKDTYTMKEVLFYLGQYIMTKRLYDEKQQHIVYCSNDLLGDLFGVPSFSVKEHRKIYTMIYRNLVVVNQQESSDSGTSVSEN
# [3] = target: T1, MDMX (In-house, 40 kD) (UniProt O15151); test: competitive fluorescence polarization, displacement of FAM-labeled linear peptide from MDMX; grade decoded by the scale of Table 4
# T1 sequence (looked up): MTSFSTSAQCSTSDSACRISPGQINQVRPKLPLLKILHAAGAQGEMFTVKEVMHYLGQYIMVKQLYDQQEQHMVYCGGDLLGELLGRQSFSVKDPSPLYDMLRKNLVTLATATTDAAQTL
# [4] = Circular dichroism (CD) analysis of alpha-helicity; type: physicochemical; conditions: for Molar Ellipticity TFE − Molar Ellipticity Benign / Molar Ellipticity 50% TFE (222 in 50% TFE) / Molar Ellipticity Benign (222 in 0% TFE): 222 nm; for Molar Ellipticity 50% TFE (222 in 50% TFE): CD buffer with 50% TFE; for Molar Ellipticity 50% TFE (222 in 50% TFE) / Molar Ellipticity Benign (222 in 0% TFE): 0.05 mg/ml, 4° C.; for Molar Ellipticity Benign (222 in 0% TFE): benign CD buffer (20 mM phosphoric acid, pH 2); for % Helix benign compared to 50% TFE parent (CD): benign buffer
# [5] = system: Caspase 3; test: Caspase 3 detection assay in SJSA1 cells; type: cell-based; conditions: SJSA1, 48 h, Caspase 3 activation over DMSO-treated cells
# [6] = system: SJSA-1 cells; test: Cell lysis by peptidomimetic macrocycles (LDH release); type: cell-based; conditions: SJSA-1, 1 h
# Summary of the method: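 Membrane lysis measured as supernatant LDH after a 1 h, 37 °C exposure of SJSA-1 cells, held in RPMI with 1% FBS, to macrocycles at final 6.25-50 μM with 0.5% DMSO. Lytic references were 10 μM melittin and 1% Triton X-100; DMSO alone served as non-lytic control.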
# [7] = system: RKO; test: Cell viability assay (MTT), RKO; conditions: read-out: RKO EC50 (72 h)
# [8] = system: SJSA-1; test: Cell viability assay (MTT), SJSA-1; conditions: read-out: SJSA-1 EC50 (72 h); 72 h, MTT
# [9] = MCF-7 breast cancer xenograft study, body weight and deaths; type: in vivo, mice; conditions: for mice died during treatment: 10 mice per group
# Source text: A negative control stapled peptide.
# [10] = system: MV4-11; test: WST-1 / MTT cell viability, MV4-11; conditions: MV4-11, sequential treatment, 72 hrs
# Description: Initially, various MV4-11 cell numbers were plated and evaluated 3-7 days later to determine the optimal number of cells to be plated and treatment duration.
# Cells were evaluated for viability by WST-1 assay or MTT assay 3-7 days after beginning treatment.
# as §1
# [11] = DOHH-2, sequential treatment, 72 hrs
compound,measurement,setting,value
"CC[C@]1(O)C[C@H]2CN(CCc3c([nH]c4ccccc34)[C@@](C(=O)OC)(c3cc4c(cc3OC)N(C=O)[C@H]3[C@@](O)(C(=O)OC)[C@H](OC(C)=O)[C@]5(CC)C=CCN6CC[C@]43[C@@H]65)C2)C1 [VCR, vincristine, reference compound]","order of addition: effect on cell growth, AP1 and VCR",[1]; [11],suppressed DOHH-2 cell growth with or without AP1
"SP755, Ac-tawyanf4CF3e$r5llr$r5a-NH2 (peptide)",pIC50,[2],> 8.00
same,pIC50,[3],< 6.00
CC[C@H](C)[C@H](NC(=O)[C@H](C)NC(=O)[C@H](C)NC(=O)[C@]1(C)CCC/C=C/CCCCCC[C@@](C)(NC(=O)[C@H](Cc2ccccc2)NC(=O)[C@@H](NC(=O)[C@H](CC(C)C)NC(C)=O)[C@@H](C)O)C(=O)N[C@@H](C)C(=O)N[C@@H](Cc2ccc(O)cc2)C(=O)N[C@@H](Cc2c[nH]c3ccccc23)C(=O)N[C@@H](C)C(=O)N[C@@H](CCC(N)=O)C(=O)N[C@@H](CC(C)C)C(=O)N1)C(=O)N[C@H](C)C(N)=O [compound 71],% Helix 50% TFE compared to 50% TFE parent (CD),[4],123.7%
same,Molar Ellipticity TFE − Molar Ellipticity Benign,[4],−17835.9 deg cm^2 dmol^−1
same,Molar Ellipticity 50% TFE (222 in 50% TFE),[4],−17957 deg cm^2 dmol^−1
same,Molar Ellipticity Benign (222 in 0% TFE),[4],−121.2 deg cm^2 dmol^−1
same,% Helix benign compared to 50% TFE parent (CD),[4],0.8%
same,caspase 0.3 μM,[5],0.95
same,caspase 1 μM,[5],1.02
same,caspase 3 μM,[5],3.68
same,caspase 10 μM,[5],14.72
same,caspase 30 μM,[5],23.52
same,6.25 μM % Lysed cells (1 h LDH),[6],0%
same,25 μM % Lysed cells (1 h LDH),[6],0%
same,50 μM % Lysed cells (1 h LDH),[6],0%
same,pEC50,[7],> 5.30
same,pEC50,[8],> 5.30
CCCC[C@H](NC(=O)[C@H](C)NC(=O)[C@H](C)NC(=O)[C@]1(C)CCC/C=C/CCCCCC[C@@](C)(NC(=O)[C@H](Cc2ccccc2)NC(=O)[C@@H](NC(=O)[C@H](CC(C)C)NC(C)=O)[C@@H](C)O)C(=O)N[C@@H](C)C(=O)N[C@@H](Cc2ccc(O)cc2)C(=O)N[C@@H](Cc2c[nH]c3ccccc23)C(=O)N[C@@H](C)C(=O)N[C@@H](CCC(N)=O)C(=O)N[C@@H](CC(C)C)C(=O)N1)C(=O)N[C@@H](C)C(N)=O [compound 69],% Helix 50% TFE compared to 50% TFE parent (CD),[4],148.2%
same,Molar Ellipticity TFE − Molar Ellipticity Benign,[4],−21407.1 deg cm^2 dmol^−1
same,Molar Ellipticity 50% TFE (222 in 50% TFE),[4],−21509.7 deg cm^2 dmol^−1
same,Molar Ellipticity Benign (222 in 0% TFE),[4],−102.6 deg cm^2 dmol^−1
same,% Helix benign compared to 50% TFE parent (CD),[4],0.7%
same,caspase 0.3 μM,[5],4.34
same,caspase 1 μM,[5],9.51
same,caspase 3 μM,[5],16.39
same,caspase 10 μM,[5],26.59
same,caspase 30 μM,[5],26.11
same,6.25 μM % Lysed cells (1 h LDH),[6],1%
same,25 μM % Lysed cells (1 h LDH),[6],−0.5%
same,50 μM % Lysed cells (1 h LDH),[6],5%
same,pEC50,[7],> 5.30
same,pEC50,[8],> 5.30
"SP752, Ac-t$r5wya$r5f4CF3ekllr-NH2 (peptide)",pIC50,[2],< 7.00 and > 6.00
same,pIC50,[3],< 6.00
"O=P1(N(CCCl)CCCl)NCCCO1 (stereo not shown) [CTX, cyclophosphamide, reference compound]","order of addition: effect on cell growth, AP1 and CTX",[1]; [11],suppressed DOHH-2 cell growth with or without AP1
same,pIC50,"[1]; CTX + 0.07 μM AP1, DOHH-2, 72 hours",3.39
same,pIC50,"[1]; CTX + 0.2 μM AP1, DOHH-2, 72 hours",3.76
same,pIC50,"[1]; CTX + 0.6 μM AP1, DOHH-2, 72 hours",3.59
same,pIC50,[1]; CTX alone,2.70
"SP757, Ac-tawy$s8nf4CF3ekll$r5a-NH2 (peptide)",pIC50,[2],> 8.00
same,pIC50,[3],< 6.00
CC[C@H](C)[C@H](NC(=O)[C@H](C)NC(=O)[C@H](C)NC(=O)[C@]1(C)CCCC=CCCCCCC[C@@](C)(NC(=O)[C@H](Cc2ccccc2)NC(=O)[C@@H](NC(=O)[C@H](CC(C)C)NC(C)=O)[C@@H](C)O)C(=O)N[C@@H](CCC(=O)O)C(=O)N[C@@H](Cc2ccc(C(=O)O)cc2)C(=O)N[C@@H](Cc2c[nH]c3ccccc23)C(=O)N[C@@H](C)C(=O)N[C@@H](CCC(N)=O)C(=O)N[C@@H](CC2CCC2)C(=O)N1)C(=O)N[C@H](C)C(N)=O [SP249] (Ac-LTF[R8]E[Phe(4-COOH)]WAQ[Cba][S5]AAI[dA]-NH2; staple 4-11),mice died during treatment,[9]; […] three times per week iv,4
"Nc1ncn([C@@H]2O[C@H](CO)[C@@H](O)[C@H]2O)c(=O)n1 [azacitidine, reference compound]","order of addition: effect on cell growth, AP1 and azacitidine",[10],suppressed MV4-11 cell growth with or without AP1
"SP754, Ac-tawya$r5f4CF3ek$r5lr-NH2 (peptide)",pIC50,[2],< 7.00 and > 6.00
same,pIC50,[3],< 6.00
"SP753, Ac-tawy$r5nf4CF3e$r5llr-NH2 (peptide)",pIC50,[2],< 8.00 and > 7.00
same,pIC50,[3],< 6.00
"SP758, Ac-tawya$s8f4CF3ekllr$r5a-NH2 (peptide)",pIC50,[2],< 8.00 and > 7.00
same,pIC50,[3],< 6.00
SP154 (LTFAEYWAQAASAA; not fully specified),% BW Change,"[9]; 30 mg/kg 3x/wk iv, Days 18-39",+5.7%
same,No. with ≥10% BW Loss,"[9]; 30 mg/kg 3x/wk iv, Days 18-39",0/10
same,No. with ≥20% BW Loss or death,"[9]; 30 mg/kg 3x/wk iv, Days 18-39",0/10
same,tolerability of dosing regimen,[9]; 30 mg/kg three times per week iv,well-tolerated
same,No. with ≥10% BW Loss,"[9]; 40 mg/kg 2x/wk iv, Days 18-39",0/10
same,No. with ≥20% BW Loss or death,"[9]; 40 mg/kg 2x/wk iv, Days 18-39",2/10 (2 deaths)
same,tolerability of dosing regimen,[9]; 40 mg/kg twice a week iv,not tolerable
same,mice died during treatment,[9]; 40 mg/kg twice a week iv,2
